Experimental data reported in US9604931B2, “Nuclear receptor binding agents” (GTx, Inc., priority 2007, dated 2017).
“Also recorded” adds a separate entry of the source.

What was measured:
[1] = system: LNCaP cells and human prostate stromal cells xenograft; assay: LNCaP-stromal cell xenograft tumor growth; assay type: in vivo, nude mice; conditions: 30 mg/kg/day for 21 days
Method: Prostate tumor xenografts were established with LNCaP cells and human prostate stromal cells in nude mice to establish the in vivo anti-proliferative effects of these ER-β NRBAs. A 4:1 ratio (based on cell number) of LNCaP:stroma cells was injected subcutaneously in nude mice and allowed to grow until they attained 100 mm^3 in volume, as measured by calipers. […] Tumor volumes were measured twice a week and percent tumor volume calculated, after 10, 14 and 21 days.

[2] = system: LNCaP prostate cancer cells; assay: 3H thymidine incorporation, LNCaP cells; assay type: cell-based; conditions: 6 days treatment
Method: (§1) The effects of treatment of an ER-β selective NRBA of this invention on cancer cell proliferation was examined using LNCaP prostate cancer cells and C-26 colon cancer cells. LNCaP or C-26 cells were plated in growth medium in 24 well and 6 well plates, respectively. LNCaP cells were treated for 6 days and C-26 cells were treated for 3 days at the indicated concentration. ^3H thymidine incorporation was measured at the end of treatment as an indicator of cell proliferation.

[3] = system: high fat diet induced obesity in already obese mice; assay: High fat diet induced obesity, treatment study (study 3); assay type: in vivo, C57BL6 male mice
Method: For the treatment obesity study (where the animals were fed with high fat diet for six weeks prior to beginning drug treatment for 18 weeks), MRI scans were performed at weeks 0, 6, 12, 18 and 24.
As the first two studies were designed to prevent obesity (i.e. animals were fed with a high fat diet and treated simultaneously), a subsequent study was conducted to evaluate the ability of 12u to affect body composition in mice that were already fed with the high fat diet and were obese. Mice were divided into three groups with one group fed with normal diet (control) and the other two groups fed with the high fat diet for 6 weeks. […] All the animals were maintained in their respective diets during the entire course of the study.

[4] = system: ovariectomy-induced (postmenopausal) obesity model; assay: Ovariectomy-induced obesity model; assay type: in vivo, female C57BL6 mice; conditions: OVX mice
Method: For the ovariectomy-induced obesity model, 6 week old female C57BL6 mice were sham operated or ovariectomized and the study was carried out for 9 weeks as indicated above.
Since it was shown that β-SERMs affected body composition in an animal model of high fat diet-induced obesity, they might also be effective in an animal model of postmenopausal obesity.

ARPE-19 cells = assay: Fluorescent detection of intracellular ROS; assay type: cell-based, Human; conditions: 150 μM tBH
Description: Cells were allowed to adhere overnight. […] Removed and washed cells once with HBSS. […] Each drug concentration was done in triplicates.

C-26 colon cancer cells = assay: 3H thymidine incorporation, C-26 cells; assay type: cell-based; conditions: 3 days treatment
Method: as §1

[5] = system: LPS induced THP-1 macrophage cell adhesion to bEND-3 endothelial cells; assay: Macrophage adhesion assay; assay type: cell-based
Method: To determine the anti-inflammatory effects of ER-β NRBAs in vitro, a macrophage adhesion assay was performed. Macrophages adhere to endothelial cells due to elevated levels of pro-inflammatory cytokines. This principle was used in this assay to determine the effect of one of the ER-NRBAs on bacterial lipopolysaccharide (LPS) induced THP-1 macrophage cell adhesion to bEND-3 endothelial cells.

[6] = system: Ang II induced cardiac fibrosis; assay: Angiotensin II model, cardiac fibrosis; assay type: in vivo, ovariectomized C57/BJ6 and ERβKO mice
Method: Thirty, ten week old female ovariectomized C57/BJ6 mice, were obtained from Harlan/Sprague Dawley and were housed in 12 hour on/off lighting and fed rodent chow devoid of soy or most plant products. Ovariectomized ERβKO mice were obtained from Ken Korach, NIEHS. The ERβ mice were originally created by Drs. Smithies, Gustafsson, and colleagues. All mice were identically housed and fed the same chow.
This pellet is well documented to produce physiological levels of E2 in the serum of mice.
Left ventricular tissues were fixed in 4% paraformaldehyde solution. Paraffin-embedded tissue sections (5 um) were stained with Masson's trichrome for the presence of interstitial collagen fiber accumulation indicative of cardiac fibrosis. The ratio of interstitial fibrosis to the total left ventricular area was calculated from 10 randomly selected microscopic fields from each of five sections per heart using NIH imageJ analysis software (n=5 mice per condition). Further quantification of collagen deposition was made by ventricular content of hydroxyproline, a breakdown product of collagen, determined by a modified method of Bergman and Loxley (19). The ventricular tissues were homogenized and hydrolyzed in 6 N HCl at 110° C. for 24 h in a sealed reaction vial. The sample was dried and the residue re-suspended in sterile water. 0.5 ml of chloramine T was added for 5 min, then Ehrlich's reagent (3 ml) was added and the mixture left for 18 h at room temperature. The intensity of the red coloration that developed was measured by a spectrophotometer at 558 nm.

[7] = system: genes implicated in lipogenesis, lypolysis, anti-oxidant and other related pathways; assay: TaqMan PCR gene expression arrays on tissues of high fat diet mice; assay type: in vivo, C57BL6 male mice
Description: RNA extracted from WAT, BAT, liver and muscle were reverse transcribed using cDNA synthesis kit (Applied biosystems, Foster city, CA).
RNA from liver, muscle, WAT and BAT were applied to these arrays.

[8] = Brown Adipose Tissue, vs high fat diet vehicle, >2-fold, p<0.01
[9] = Liver, vs high fat diet vehicle, >2-fold, p<0.01
[10] = White Adipose Tissue, vs high fat diet vehicle, >2-fold, p<0.01

In the case of `O=c1c2c(O)cc(O)cc2c(Br)cn1-c1ccc(O)cc1` [12u, 4-bromo-6,8-dihydroxy-2-(4-hydroxyphenyl)isoquinolin-1(2H)-one], the Xenograft tumor growth [1] is reported as “inhibited the growth of tumor significantly”, the “Growth of LNCaP prostate cancer cells” value [2] is reported as “significantly inhibited” and the “Body weight versus normal diet control mice” value ([3]; by week 16) is reported as “not significantly different from normal diet control mice”. The “Body fat increase (MRI)” value ([3]; obese mice, 30 mg/kg/day s.c.) was “reduced”, the “Body weight gain after start of treatment” value ([3]; obese mice, 30 mg/kg/day s.c. from week 6) was “prevented further gains in body weight” and the Body weight gain [4] was “did not inhibit body weight gain”. For the same compound, the “Fat mass (MRI)” value [4] was “completely prevented the increase in fat mass”, the Feed consumption [4] was “increased the feed consumption” and the “Lean mass (MRI)” value [4] was “significantly increased lean mass”. The Uterine weight [4] was “without affecting uterine weight”, the WAT weight [4] was “completely inhibited the WAT” and the “Prevention of ROS formation / oxidative stress” value (ARPE-19 cells) was “did not seem to have any effect”. The “Growth of C-26 colon cancer cells” value (C-26 colon cancer cells) was “significantly inhibited”, the “Adhesion of 3H labeled THP-1 cells to bEND-3 cells” value [5] was “significantly inhibited” and the Ventricular hydroxyproline content ([6]; WT mice, not ERβKO) was “significantly inhibited the hydroxyproline content”. For the same compound, the “Ang II induced cardiac fibrosis (interstitial collagen)” value ([6]; only in WT mice) was “significantly inhibited fibrosis; also recorded: prevented”.

With `N#Cc1cn(-c2ccc(O)cc2)c(=O)c2c(O)cc(O)cc12` [14m, 6,8-dihydroxy-2-(4-hydroxyphenyl)-1-oxo-1,2-dihydroisoquinoline-4-carbonitrile] the “High fat diet increase in expression of lipogenesis genes (LPL, FASN, SREBP-1, PLTP, Dhcr24)” value ([7]; BAT and WAT) was “reversed”, the “Ddit3 gene expression Increase/Decrease” value [7, 8] was “Decrease” and the “Dhcr24 gene expression Increase/Decrease” value [7, 8] was “Decreased”. For the same compound, the “ER-β gene expression Increase/Decrease” value [7, 8] was “Increased”, the “GPx-3 gene expression Increase/Decrease” value [7, 8] was “Increase” and the “LPL gene expression Increase/Decrease” value [7, 8] was “Decrease”. The “PLTP gene expression Increase/Decrease” value [7, 8] was “Decrease”, the “UCP-1 gene expression Increase/Decrease” value [7, 8] was “increase in UCP-1 gene expression; also recorded: Increased” and the “CIDEA gene expression Increase/Decrease” value [7, 9] was “Decrease”. For the same compound, the “GPx-3 gene expression Increase/Decrease” value [7, 9] was “Increase”, the “Ddit3 gene expression Increase/Decrease” value [7, 10] was “Decrease” and the “FASN gene expression Increase/Decrease” value [7, 10] was “Decrease”. The “LPL gene expression Increase/Decrease” value [7, 10] was “Decrease” and the “SREBP1 gene expression Increase/Decrease” value [7, 10] was “Decrease”.
